Source: patent publication US11760784B2, “Compositions comprising PEDF-derived short peptides and uses thereof” (BRIM Biotechnology, Inc., priority 2016, dated 2023)

Tests used:
TNF-α mRNA = experiment: Ocular TNF-α mRNA by quantitative real-time PCR in CEC dry eye mice; format: in vivo, C57BL6 mice; details: CEC 14 days, then topical PDSP for 5 days
Experimental: Dry eye is associated with abnormalities in the pre-corneal tear film and subsequent inflammatory changes in the entire ocular surface including the adnexa, conjunctiva and cornea. (see, Hessen et al., “Dry eye: An Inflammatory Ocular Disease,” J. Ophthalmic Vis. Res., 2014, 9(2): 240-250). Therefore, the effects of PDSPs in corneal inflammatory responses were next examined. Briefly, C57BL6 mice were housed in CEC for 14 days (Day 0) and then treatment with PDSP or vehicle were performed for additional 5 days (Day 5). Then, mRNA levels for inflammatory factors were evaluated by quantitative real-time PCR.
The total RNA was extracted from cells using TRIzol (Invitrogen) and treated with RNase free DNase I (Qiagen, Santa Clarita, CA) to remove genomic DNA and then purified with an RNA purification kit (Dynabeads; Invitrogen). […] Quantitative real-time PCR was performed in a GeneAmp 7700 sequence detection system (Applied Biosystems, Foster City, CA). […] All determinations were measured in triplicate. The cycle threshold (Ct) values corresponded to the PCR cycle number at which fluorescence emission in real time reaches a threshold above the base-line emission were analyzed using GeneAmp 7700 SDS software. The Ct value of the PCR product of interest and a control mRNA (GAPDH) were then used to calculate relative quantities of mRNA between samples.

MMP-9 mRNA = MMP-9 mRNA by quantitative real-time PCR in NaCl-treated corneal epithelial cells; format: cell-based, rabbit
Experimental: Therefore, we also examined the effects of PDSP on the MMP-9 mRNA expression and activity in NaCl-treated rabbit corneal epithelial cells. Briefly, rabbit corneal epithelial cells were treated as described above. […] Hyperosmotic stress induced a substantial (about 2-fold) increase in MMP-9 mRNA level (Negative control peptide, ConP, followed by NaCl treatment). […] The increases in MMP-9 mRNA levels substantially correlate with the expression of the MMP-9 protein as measured with SDS-gel and enzymatic activities, as shown in FIG. 7(B).
The total RNA was extracted from cells using TRIzol (Invitrogen) and treated with RNase free DNase I (Qiagen, Santa Clarita, CA) to remove genomic DNA and then purified with an RNA purification kit (Dynabeads; Invitrogen). Synthesis of cDNA was performed by Superscript III (Invitrogen). Quantitative real-time PCR was performed in a GeneAmp 7700 sequence detection system (Applied Biosystems, Foster City, CA). […] All determinations were measured in triplicate. The cycle threshold (Ct) values corresponded to the PCR cycle number at which fluorescence emission in real time reaches a threshold above the base-line emission were analyzed using GeneAmp 7700 SDS software. The Ct value of the PCR product of interest and a control mRNA (GAPDH) were then used to calculate relative quantities of mRNA between samples. […]

“PDSP: 29mer, residues 93-121 of human PEDF: SLGAEQRTESIIHRALYYDLISSPDIHGT (SEQ ID NO:4) (listed as Homo sapiens)” was tested, and the “repression of ocular TNF-α mRNA expression compared to vehicle-treated group” value (TNF-α mRNA) was 1.9 fold, the “MMP-9 mRNA levels without hyperosmotic stress (peptide alone)” value (MMP-9 mRNA; PDSP alone, isotonic medium) was “did not have effect” and the “repression of MMP-9 mRNA expression” value (MMP-9 mRNA; PDSP pretreatment 20 hours, then hyperosmotic medium (463 mOsM) 24 hours) was 2 fold.
